According to US20220280661A1, “GLUCOCORTICOID RECEPTOR RADIOLIGANDS AND METHODS FOR THEIR PREPARATION AND USE” (The Regents of the University of California, priority 2019, published 2022):
Read-outs that look alike come from different tables or passages of the source.

Columns and labels:
[1] = molecular target: T1, GR (Homo sapiens, UniProt P04150); assay: 3H-dexamethasone displacement assay on cells (Ki); format: binding
T1 construct: evaluated using ^3H-ligand displacement assays on cells; endogenous in cells; host or cells: DU145
T1 sequence (P04150 1-777): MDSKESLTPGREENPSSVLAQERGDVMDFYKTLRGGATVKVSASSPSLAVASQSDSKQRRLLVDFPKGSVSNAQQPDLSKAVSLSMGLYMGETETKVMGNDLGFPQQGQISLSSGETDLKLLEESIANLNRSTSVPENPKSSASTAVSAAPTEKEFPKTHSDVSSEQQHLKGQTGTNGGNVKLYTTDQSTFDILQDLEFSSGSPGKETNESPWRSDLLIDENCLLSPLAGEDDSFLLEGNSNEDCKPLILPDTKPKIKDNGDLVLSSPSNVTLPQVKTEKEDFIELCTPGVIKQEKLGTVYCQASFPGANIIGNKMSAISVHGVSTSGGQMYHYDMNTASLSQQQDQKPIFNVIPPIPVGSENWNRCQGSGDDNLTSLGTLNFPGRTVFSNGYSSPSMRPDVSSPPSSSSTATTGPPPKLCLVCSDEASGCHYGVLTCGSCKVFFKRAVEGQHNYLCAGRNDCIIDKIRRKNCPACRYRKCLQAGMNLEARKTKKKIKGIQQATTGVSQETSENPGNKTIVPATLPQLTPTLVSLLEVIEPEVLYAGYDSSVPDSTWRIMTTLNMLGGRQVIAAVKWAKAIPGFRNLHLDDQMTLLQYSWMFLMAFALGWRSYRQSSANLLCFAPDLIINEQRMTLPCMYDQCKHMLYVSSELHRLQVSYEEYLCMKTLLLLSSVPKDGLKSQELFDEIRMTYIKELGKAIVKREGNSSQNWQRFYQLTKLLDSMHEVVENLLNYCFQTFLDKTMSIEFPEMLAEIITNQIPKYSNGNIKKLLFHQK
Procedure: Statistics. All statistical analysis was performed using PRISM v8.0 software. An unpaired, two-tailed Student's t test was used to determine statistically significant differences in the data. P<0.05 was reported as statistically significant. For the determination of Ki, the data were fit with a one site nonlinear regression model.
The racemic mixture of the phenol 27 was resolved using a chiral Lux® 5p Cellulose-1 stationary phase with an isocratic mobile phase of 30% water, 70% acetonitrile, and 0.1% trifluoroacetic acid (v v) (FIG. 8A). Several milligrams of one peak were isolated and the compound was recrystallized in hexanes.
The Ki were calculated using a one site Ki fit nonlinear regression with Prism v8.0. The data are representative of two independent assays.

[2] = Plasma protein binding, rapid equilibrium dialysis, mouse plasma; format: in vitro ADME; conditions: mouse, plasma, pH 7.4, mouse plasma
Procedure: (§1) Plasma Protein Binding Studies. The rapid equilibrium dialysis (RED) device inserts along with a Teflon base plate (Pierce, Rockford, Ill.) were used for the binding studies. The pH of the human or mouse plasma was adjusted to 7.4 prior to the experiment. DMSO stocks (1 mM) were spiked into the plasma to make a final concentration of 2 μM. The spiked plasma solutions (300 μL) were placed into the sample chamber (indicated by the red ring); and 500 μL of PBS buffer, pH 7.4, was placed into the adjacent chamber. The plate was incubated at 37° C. on an orbital shaker (250 rpm) for 4 hours.
(§2) After 4 hours, from the RED plate, aliquots (100 μL) were removed from each side of the insert (plasma and buffer) and dispensed into the 96-well plate. Subsequently, 100 μL of blank plasma was added to the buffer samples and 100 μL of blank buffer was added to all the collected plasma samples. 300 μL of quench solution (50% acetonitrile, 50% methanol, and 0.05% formic acid, warmed up at 37° C.) containing internal standards was added to each well. Plates were sealed, vortexed, and centrifuged at 4° C. for 15 minutes at 4000 rpm. The supernatant was transferred to fresh plates for LC/MS/MS analysis. The sample were analyzed on LC/MS/MS using an AB Sciex API 4000 instrument, coupled to a Shimadzu LC-20AD LC Pump system. Analytical samples were separated using a Waters Atlantis T3 dC18 reverse phase HPLC column (20 mm×2.1 mm) at a flow rate of 0.5 mL/min. The mobile phase consisted of 0.1% formic acid in water (solvent A) and 0.1% formic acid in acetonitrile (solvent B).
(§3) The percentage of test compound bound to protein was calculated by the following equations:
(§4) % Free=(Concentration in buffer chamber/Concentration in plasma chamber)×100%

[3] = system: plasma protein; assay: as above; format: in vitro ADME
Procedure: as §1, §2, §3, §4

[4] = Plasma protein binding, rapid equilibrium dialysis, human plasma; format: in vitro ADME; conditions: human, plasma, pH 7.4, human plasma
Procedure: as §1, §2, §3, §4

[5] = system: plasma protein; assay: as above; format: in vitro ADME
Procedure: as §1, §2, §3, §4

[6] = molecular target: T2, GR (Mus musculus, UniProt P06537); assay: 11C radiotracer biodistribution with dexamethasone or Dex-CD blocking; format: in vivo; conditions: for radiotracer uptake, Adrenal / radiotracer uptake, Blood / radiotracer uptake, Bone / radiotracer uptake, Brain / radiotracer uptake, Brown Fat / radiotracer uptake, Heart / radiotracer uptake, Kidney / radiotracer uptake, Lg. Int. / radiotracer uptake, Liver / radiotracer uptake, Lung / radiotracer uptake, Muscle / radiotracer uptake, Pancreas / radiotracer uptake, Sm. Int. / radiotracer uptake, Spleen / radiotracer uptake, Stomach: 20 min after injection
T2 construct: from tissue; host or cells: tissues of C57BL6/J mice (intact or adrenalectomized), in vivo
T2 sequence (P06537 1-792): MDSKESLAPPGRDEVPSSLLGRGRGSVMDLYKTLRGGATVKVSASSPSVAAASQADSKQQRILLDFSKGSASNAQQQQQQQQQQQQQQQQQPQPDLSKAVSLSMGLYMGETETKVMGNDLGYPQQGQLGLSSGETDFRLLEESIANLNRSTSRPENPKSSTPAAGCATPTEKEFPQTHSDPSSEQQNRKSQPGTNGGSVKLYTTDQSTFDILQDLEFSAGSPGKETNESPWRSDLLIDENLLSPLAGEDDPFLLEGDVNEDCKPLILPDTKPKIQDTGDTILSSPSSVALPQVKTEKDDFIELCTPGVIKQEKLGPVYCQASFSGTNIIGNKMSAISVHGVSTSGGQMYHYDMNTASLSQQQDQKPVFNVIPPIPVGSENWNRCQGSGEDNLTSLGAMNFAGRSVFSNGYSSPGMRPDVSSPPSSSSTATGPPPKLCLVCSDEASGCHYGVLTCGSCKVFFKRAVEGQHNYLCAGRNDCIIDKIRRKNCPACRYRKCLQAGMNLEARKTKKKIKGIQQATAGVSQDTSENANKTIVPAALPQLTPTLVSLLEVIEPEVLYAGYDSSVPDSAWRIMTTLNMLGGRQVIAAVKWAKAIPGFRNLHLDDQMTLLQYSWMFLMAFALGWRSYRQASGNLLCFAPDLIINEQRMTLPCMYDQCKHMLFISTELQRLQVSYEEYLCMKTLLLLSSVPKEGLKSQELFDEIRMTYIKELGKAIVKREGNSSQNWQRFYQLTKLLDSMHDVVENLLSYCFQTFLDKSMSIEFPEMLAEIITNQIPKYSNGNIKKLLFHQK
Procedure: Animal Studies. All animal experiments were performed under the approval of the Institutional Animal Care and Use Committee (IACUC) at UCSF. C57BL6/J mice (4-6 weeks) were purchased from Charles River. All the mice were housed in a dedicated vivarium with free access to food and water. […] Adrenalectomized mice were purchased from Charles River and provided drinking water supplemented with NaCl (aq) per instructions until the time of the tracer biodistribution study.
Biodistribution Studies. Mice were euthanized after radiotracer (7.4-18.5 MBq in 100-150 μL) injection with CO2 (g) asphyxiation and dissected at dedicated time points post injection. The blood and tissues were collected, washed, dried, and weighed. The activity of each tissue was measured with a gamma counter. All data was decay corrected. PRISM software was used to express a percentage (% ID/g) of the injected dose per gram of tissue.
The P value indicates the result of an unpaired, two-tailed Student's t test between the respective treatment group and vehicle (n=5/group).
Table 10 summarizes biodistribution data collected 20 minutes after injection of ^11C-YJH02 among two treatment arms receiving vehicle or one intraperitoneal injection of the water-soluble dexamethasone-cyclodextrin complex at 10 mg/kg one hour prior to radiotracer administration. The P value indicates the result of an unpaired, two-tailed Student's t test between the respective treatment group and vehicle (n=5/group).

[7] = DU145 cells, read-out: affinity (3H-dexamethasone displacement curves)
[8] = GR in cells, one site Ki fit, read-out: Ki
[9] = duplicate, read-out: % Bound (converted)
[10] = read-out: % Bound Average (converted)
[11] = mice given Dex-CD 10 mg/kg intraperitoneal one hour prior to radiotracer

## COc1cccc2c1-c1ccc3c(c1[C@@H](Cc1ccc(F)cc1)O2)C(C)=CC(C)(C)N3 [(R)-YJH08]
[1]; [7]
  Ki: < 5 nM
[1]; [8]
  Ki: 3.76 nM

## COc1cccc2c1-c1ccc3c(c1[C@H](Cc1ccc(F)cc1)O2)C(C)=CC(C)(C)N3 [(S)-YJH08]
[1]; [7]
  Ki: < 5 nM
[1]; [8]
  Ki: 2.03 nM

## CC(C)NCC(O)COc1cccc2ccccc12 (centres unmarked) [Propranolol]
[2]; [9]
  fraction unbound at 4 h, 2 μM: 0.223
[2]; [10]
  fraction unbound at 4 h, 2 μM: 0.22
[3]; mouse plasma, 2 μM, duplicate
  % Bound: 78.25%
[3]; plasma (rapid equilibrium dialysis device), pH 7.4, mouse plasma
  recovery at 4 h, 2 μM: 106%
[4]; [9]
  fraction unbound at 4 h, 2 μM: 0.354
[4]; [10]
  fraction unbound at 4 h, 2 μM: 0.354
[5]; human plasma, 2 μM, duplicate
  % Bound: 64.56%
[5]; plasma (rapid equilibrium dialysis device), pH 7.4, human plasma
  recovery at 4 h, 2 μM: 104%

## CC1=CC(C)(C)Nc2ccc3c(c21)c(=O)oc1cccc(O)c13 [YJH01, 2,5-dihydro-10-hydroxy-5-oxo-2,2,4-trimethyl-1H-[1]benzopyrano [3,4-f]quinoline]
[1]; [8]
  Ki: 2.35 nM

## COc1cccc2oc(=O)c3c4c(ccc3c12)NC(C)(C)C=C4C [YJH02, 2,5-Dihydro-10-methoxy-5-oxo-2,2,4-trimethyl-1H-[1]benzopyrano [3,4-f]quinoline]
[1]; [8]
  Ki: 2.67 nM

## COc1cccc2c1-c1ccc3c(c1C(O)O2)C(C)=CC(C)(C)N3 (centres unmarked) [YJH03]
[1]; [8]
  Ki: 6.51 nM

## COc1cccc2c1-c1ccc3c(c1C(OC)O2)C(C)=CC(C)(C)N3 (centres unmarked) [YJH04, 5,10-Dimethoxy-2,5-dihydro-2,2,4-trimethyl-1H-[1]benzopyrano[3,4-f]quinolone]
[1]; [8]
  Ki: 6.22 nM

## COc1cccc2oc(=O)c3c4c(ccc3c12)NC(C)(C)C=C4C [^11C-YJH02]
[6]; [11]
  radiotracer uptake, Adrenal: 2.37 ± 1.0 % ID/g
  radiotracer uptake, Blood: 1.07 ± 0.1 % ID/g
  radiotracer uptake, Bone: 0.76 ± 0.1 % ID/g
  radiotracer uptake, Brain: 0.34 ± 0.07 % ID/g
  radiotracer uptake, Brown Fat: 3.64 ± 1.0 % ID/g
  radiotracer uptake, Heart: 0.97 ± 0.1 % ID/g
  radiotracer uptake, Kidney: 1.28 ± 0.1 % ID/g
  radiotracer uptake, Lg. Int.: 1.06 ± 0.3 % ID/g
  radiotracer uptake, Liver: 3.75 ± 0.8 % ID/g
  radiotracer uptake, Lung: 1.71 ± 0.2 % ID/g
  radiotracer uptake, Muscle: 0.57 ± 0.1 % ID/g
  radiotracer uptake, Pancreas: 1.76 ± 0.4 % ID/g
  radiotracer uptake, Sm. Int.: 5.80 ± 2.5 % ID/g
  radiotracer uptake, Spleen: 0.76 ± 0.1 % ID/g
  radiotracer uptake, Stomach: 1.81 ± 0.3 % ID/g
[6]; mice given vehicle
  radiotracer uptake, Adrenal: 6.17 ± 0.7 % ID/g
  radiotracer uptake, Blood: 1.24 ± 0.1 % ID/g
  radiotracer uptake, Bone: 0.70 ± 0.1 % ID/g
  radiotracer uptake, Brain: 0.66 ± 0.1 % ID/g
  radiotracer uptake, Brown Fat: 4.65 ± 1.1 % ID/g
  radiotracer uptake, Heart: 1.15 ± 0.2 % ID/g
  radiotracer uptake, Kidney: 1.38 ± 0.4 % ID/g
  radiotracer uptake, Lg. Int.: 1.63 ± 0.4 % ID/g
  radiotracer uptake, Liver: 6.78 ± 1.1 % ID/g
  radiotracer uptake, Lung: 2.07 ± 0.4 % ID/g
  radiotracer uptake, Muscle: 0.74 ± 0.1 % ID/g
  radiotracer uptake, Pancreas: 2.70 ± 0.4 % ID/g
  radiotracer uptake, Sm. Int.: 10.88 ± 2.7 % ID/g
  radiotracer uptake, Spleen: 1.55 ± 0.1 % ID/g
  radiotracer uptake, Stomach: 2.51 ± 0.4 % ID/g
[6]; normal mice, 20 min post injection
  brain uptake relative to (±)-^11C-YJH08: approximately three fold lower
